From patent US8461183B2, “PPAR agonist compounds, preparation and uses” (Genfit, priority 2008, dated 2013) come the findings set out here.

What all share (assay type): cell-based
For one test, the target named is T1, hPPARα (Homo sapiens, UniProt Q07869).
T1 construct: corresponding to the DEF domains (structural elements of the promoter of the PPARs: D=hinge, EF=ligand fixation domain and AF2 fixation site); expressed in transfected cells; host or cells: COS-7 (monkey kidney fibroblasts)
T1 sequence (Q07869 239-466 limits assumed): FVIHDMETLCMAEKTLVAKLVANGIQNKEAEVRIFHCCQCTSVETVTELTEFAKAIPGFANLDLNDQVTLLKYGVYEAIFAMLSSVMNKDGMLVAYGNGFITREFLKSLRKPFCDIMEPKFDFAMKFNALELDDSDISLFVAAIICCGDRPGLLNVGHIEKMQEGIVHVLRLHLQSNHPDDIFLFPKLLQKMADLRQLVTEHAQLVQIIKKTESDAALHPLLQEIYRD
The test can be described thus: Gal4-hPPARα chimera transactivation (luciferase) in COS-7 cells. The note with it: COS-7 cells, Gal4-hPPARα, 24 hours; for EC50: luciferase, read-out: PPARα EC50; for Emax: relative to maximum activation obtained with fenofibric acid, read-out: PPARα TOP % (maximum activation). As to the method: (§1) Activation of PPARs is evaluated in vitro on a line of monkey kidney fibroblasts (COS-7) by measuring the transcriptional activity of chimeras consisting of the DNA binding domain of Gal4 transcription factor of yeast and of the ligand binding domain of the various PPARs of human origin (hPPAR).
(§2) The COS-7 cells are from ATCC and are cultivated in DMEM medium supplemented with 10% (vol/vol) of fetal calf serum, 1% of penicillin/streptomycin (Biochrom, AG), 1% of amino acids (Gibco) and 1% of sodium pyruvate (Gibco). The cells are incubated at 37° C. in a humid atmosphere containing 5% CO2.
(§3) The plasmids Gal4(RE)_TkpGL3, pGal4-hPPARα, pGal4-hPPARγ, pGal4-hPPARδ and pGal4-φ are described in the literature (Raspe E et al., 1999). The constructs pGal4-hPPARα, pGal4-hPPARγ and pGal4-hPPARδ were obtained by cloning, into the pGal4-φ vector, DNA fragments amplified by PCR corresponding to the DEF domains (structural elements of the promoter of the PPARs: D=hinge, EF=ligand fixation domain and AF2 fixation site) of the human nuclear receptors PPAα, PPARγ and PPARδ.
(§4) The adherent COS-7 cells are transfected with 40 μg of DNA per 225 cm^2 flask, with a pGal4-hPPAR/Gal4(RE)_TkpGL3 ratio of 1/10, in the presence of 10% of fetal calf serum. The cells are then detached and seeded in the absence of serum in 384-well plates (2×10^4 cells/well) then incubated for 4 hours at 37° C. The compounds are then diluted in a 96-well plate and then transferred to the 384-well plate. Activation with the test compounds is effected for a further 24 hours at 37° C. in the presence of 1% of synthetic serum Ultroser™ (Biosepra). These last 2 stages are automated by means of a Genesis Freedom 200™ station (Tecan). At the end of the experiment, the cells are lysed and the luciferase activity is determined using the Steady-Lite™ HTS (Perkin Elmer) according to the supplier's recommendations.
The test data are summarized in Table 8-1 below, which presents, for each compound, the values of maximum activation (TOP %) and the EC50 values measured for each isoform of PPAR. The values of maximum activation are expressed in percentages relative to the maximum activations obtained with reference agonists: fenofibric acid for PPARα, rosiglitazone for PPARγ and 2-methyl-4-((4-methyl-2-(4-trifluoromethylphenyl)-1,3-thiazol-5-yl)-methylsulfanyl)phenoxyacetic acid (also called GW501516) for PPARδ.

Another test addresses T2, hPPARγ (Homo sapiens, UniProt P37231).
T2 construct: corresponding to the DEF domains (structural elements of the promoter of the PPARs: D=hinge, EF=ligand fixation domain and AF2 fixation site); expressed in transfected cells; host or cells: COS-7 (monkey kidney fibroblasts)
T2 sequence (P37231 238-503 limits assumed): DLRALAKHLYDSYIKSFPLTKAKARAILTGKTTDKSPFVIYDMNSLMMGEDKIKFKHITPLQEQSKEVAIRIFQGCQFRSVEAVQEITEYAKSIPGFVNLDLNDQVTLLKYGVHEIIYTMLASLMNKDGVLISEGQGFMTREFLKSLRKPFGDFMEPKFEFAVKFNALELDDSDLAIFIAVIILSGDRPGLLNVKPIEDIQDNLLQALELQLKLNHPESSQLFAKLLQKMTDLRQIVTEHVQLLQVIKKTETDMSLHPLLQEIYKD
The test can be described thus: Gal4-hPPARγ chimera transactivation (luciferase) in COS-7 cells. The settings on record: 24 hours; for EC50: luciferase, read-out: PPARγ EC50; for Emax: relative to maximum activation obtained with rosiglitazone, read-out: PPARγ TOP % (maximum activation). As to the method:
as §1, §2, §3, §4
(§5) The test data are summarized in Table 8-1 below, which presents, for each compound, the values of maximum activation (TOP %) and the EC50 values measured for each isoform of PPAR.

The target of a further test is T3, hPPARδ (Homo sapiens, UniProt Q03181).
T3 construct: corresponding to the DEF domains (structural elements of the promoter of the PPARs: D=hinge, EF=ligand fixation domain and AF2 fixation site); expressed in transfected cells; host or cells: COS-7 (monkey kidney fibroblasts)
T3 sequence (Q03181 211-439 limits assumed): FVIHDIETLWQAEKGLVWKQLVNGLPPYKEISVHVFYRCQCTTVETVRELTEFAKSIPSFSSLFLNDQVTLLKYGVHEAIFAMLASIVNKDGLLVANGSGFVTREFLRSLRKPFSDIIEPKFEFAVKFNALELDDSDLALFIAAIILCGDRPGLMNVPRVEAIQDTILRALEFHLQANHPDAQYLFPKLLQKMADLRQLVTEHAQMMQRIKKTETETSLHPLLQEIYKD
The test can be described thus: Gal4-hPPARδ chimera transactivation (luciferase) in COS-7 cells. The note with it: COS-7 cells, Gal4-hPPARδ, 24 hours; for EC50: luciferase, read-out: PPARδ EC50; for Emax: relative to maximum activation obtained with GW501516, read-out: PPARδ TOP % (maximum activation). As to the method:
as §1, §2, §3, §4, §5

In the case of `O=C(O)COc1ccc(OCc2ccc(-c3ccccc3)nc2OC2CCCCC2)cc1` [Cpd 18, 2-(4-((2-cyclohexyloxy-6-phenylpyridin-3-yl)methoxy)phenoxy)ethanoic acid], the EC50 on hPPARα was determined as 10.7 µM; at hPPARγ, 14.2 µM; at hPPARδ, 3.97 µM. For the same compound, the Emax stood at 35.3% on hPPARα, 26.1% at hPPARγ and 97.1% at hPPARδ.

As for `O=C(O)COc1ccc(OCc2ccc(-c3ccccc3)nc2N2CCCCC2)cc1` [Cpd 20, 2-(4-((6-phenyl-2-(piperidin-1-yl)pyridin-3-yl)methoxy)phenoxy)ethanoic acid], the EC50 at hPPARα came to 14.3 µM; on hPPARγ, 30.2 µM; at hPPARδ it was 5.26 µM. Further, the figures for the Emax on hPPARα, at hPPARγ and at hPPARδ were 34.2%, 43% and 87.7%, respectively.

Regarding `COc1nc(-c2ccc(C(F)(F)F)cc2)ccc1COc1ccc(OC(C)(C)C(=O)O)cc1` [Cpd 21, 2-(4-((2-methoxy-6-(4-(trifluoromethyl)phenyl)pyridin-3-yl)methoxy)-phenoxy)-2-methylpropanoic acid], the Emax on hPPARα came out at 70.2%; at hPPARγ, 51.5%; on hPPARδ it was 100%. The EC50 came to 1.43 µM at hPPARγ and 0.276 µM on hPPARδ.

With `COc1nc(-c2ccc(C(F)(F)F)cc2)ccc1CNc1ccc(SC(C)(C)C(=O)O)cc1` [Cpd 22, 2-(4-(((2-methoxy-6-(4-(trifluoromethyl)phenyl)pyridin-3-yl)methyl)amino)-phenylthio)-2-methylpropanoic acid], the figures for the Emax on hPPARα, at hPPARγ and at hPPARδ were 75.9%, 88.9% and 102%, respectively. For the same compound, the results for the EC50 on hPPARγ and on hPPARδ were 1.05 µM and 1.15 µM, respectively.

For `COc1nc(-c2ccc(C(F)(F)F)cc2)ccc1CNc1ccc(SCC(=O)O)cc1` [Cpd 23, 2-(4-(((2-methoxy-6-(4-(trifluoromethyl)phenyl)pyridin-3-yl)methyl)amino)-phenylthio)ethanoic acid], the EC50 at hPPARα is 0.044 µM; on hPPARγ, 2.84 µM; on hPPARδ, 0.501 µM. For the same compound, the Emax was 65.3% at hPPARα, 75.6% at hPPARγ and 85.4% on hPPARδ.

Regarding `O=C(O)COc1ccc(OCc2ccc(-c3ccccc3)nc2Sc2ccccc2)cc1` [Cpd 25, 2-(4-((2-phenylthio-6-(phenyl)pyridin-3-yl)methoxy)phenoxy)ethanoic acid], the EC50 at hPPARα amounted to 6.96 µM; on hPPARγ, 8.29 µM; at hPPARδ it was 6.38 µM. For the same compound, the figures for the Emax on hPPARα, on hPPARγ and on hPPARδ were 53.9%, 38.3% and 71%, respectively.

For `COc1ncc(-c2ccccc2)cc1CNc1ccc(SCC(=O)O)cc1` [Cpd 26, 2-(4-(((2-methoxy-5-phenylpyridin-3-yl)methyl)amino)phenylthio)ethanoic acid], the EC50 on hPPARα was 20.9 µM; at hPPARγ, 44.1 µM; at hPPARδ it was 31.1 µM. The Emax on hPPARα is 67%; on hPPARγ it was 208%; on hPPARδ it was 138%.

Consider `COc1nc(-c2ccccc2)ccc1CNc1ccc(SC(F)(F)C(=O)O)cc1` [Cpd 27, 2-(4-(((2-methoxy-6-phenylpyridin-3-yl)methyl)amino)phenylthio)-2,2-difluoroethanoic acid], for which the EC50 on hPPARα was 3.64 µM; on hPPARγ, 10.6 µM; on hPPARδ, 41.1 µM. Besides, the Emax is 99.8% on hPPARα, 98.7% at hPPARγ and 72.9% at hPPARδ.

Take `COc1nc(-c2ccccc2)c(-c2ccccc2)cc1CNc1ccc(SCC(=O)O)cc1` [Cpd 28, 2-(4-(((2-methoxy-5,6-diphenylpyridin-3-yl)methyl)amino)phenylthio)ethanoic acid]: the EC50 on hPPARα was found to be 1.74 µM; at hPPARγ, 11.3 µM; at hPPARδ, 25.2 µM. The Emax at hPPARα came out at 55.4%; at hPPARγ it was 45%; at hPPARδ it was 49.1%.

Regarding `COc1nc(-c2ccccc2)c(Br)cc1CNc1ccc(SCC(=O)O)cc1` [Cpd 29, 2-(4-(((2-methoxy-5-bromo-6-phenylpyridin-3-yl)methyl)amino)phenylthio)-ethanoic acid], the EC50 worked out at 3.85 µM at hPPARα, 8.43 µM at hPPARγ and 10.1 µM at hPPARδ. The Emax came to 59.3% at hPPARα, 57.7% on hPPARγ and 85.6% at hPPARδ.

For `COc1nc(-c2ccccc2)ccc1CNc1ccc(SC(C(=O)O)c2ccccc2)cc1` (stereo not shown) [Cpd 32, 2-(4-(((2-methoxy-6-phenylpyridin-3-yl)methyl)amino)phenylthio)-2-phenyl-acid], the EC50 stood at 1.48 µM at hPPARα, 2.51 µM on hPPARγ and 22.8 µM at hPPARδ. Moreover, the Emax on hPPARα came out at 70.4%; at hPPARγ, 66.6%; at hPPARδ it was 3.59%.

For the compound `COc1nc(-c2ccccc2)ccc1CN(C)c1ccc(CCC(=O)O)cc1` [Cpd 33, 3-(4-(((2-methoxy-6-phenylpyridin-3-yl)methyl)(methyl)amino)phenyl)-propanoic acid], the figures for the EC50 on hPPARα, at hPPARγ and on hPPARδ were 4.55 µM, 12.4 µM and 10.5 µM, respectively. Moreover, the Emax on hPPARα is 49.9%; at hPPARγ it was 65%; on hPPARδ it was 74.5%.

For the compound `CCC(Nc1ccc(CCC(=O)O)cc1)c1ccc(-c2ccccc2)nc1OC` (stereo not shown) [Cpd 34, 3-(4-(1-((2-methoxy-6-phenylpyridin-3-yl)propyl)amino)phenyl)propanoic acid], the EC50 on hPPARα stood at 1.42 µM; at hPPARγ, 2.33 µM; on hPPARδ, 0.526 µM. The Emax at hPPARα stood at 67.6%; at hPPARγ it was 80.4%; at hPPARδ it was 108%.

In the case of `COc1nc(-c2ccccc2)ccc1CNc1cc(C)c(OCC(=O)O)c(C)c1` [Cpd 35, 2-(4-(((2-methoxy-6-phenylpyridin-3-yl)methyl)amino)-2,6-dimethyl-phenoxy)ethanoic acid], the figures for the EC50 on hPPARα, at hPPARγ and at hPPARδ were 0.647 µM, 6.18 µM and 1.54 µM, respectively. In addition, the results for the Emax on hPPARα, on hPPARγ and on hPPARδ were 26.1%, 38.8% and 13.2%, respectively.

For the compound `COc1nc(-c2ccccc2)ccc1CSc1ccc(CCC(=O)O)cc1` [Cpd 37, 3-(4-((2-methoxy-6-phenylpyridin-3-yl)methylthio)phenyl)propanoic acid], the EC50 on hPPARα amounted to 9.95 µM; on hPPARγ, 9.17 µM; at hPPARδ it was 12.7 µM. Moreover, the figures for the Emax on hPPARα, at hPPARγ and on hPPARδ were 65.5%, 98.5% and 94.7%, respectively.

The EC50 is the concentration needed to bring the measured effect to its halfway point.
